As a reminder, the IC50 is the concentration at which inhibition is half-maximal. Broadly, the inhibition is the percentage by which the read-out fell short of the control.

Molecules are shown by their SMILES.

Sequence of human Cav2.2 (Q00975 whole entry): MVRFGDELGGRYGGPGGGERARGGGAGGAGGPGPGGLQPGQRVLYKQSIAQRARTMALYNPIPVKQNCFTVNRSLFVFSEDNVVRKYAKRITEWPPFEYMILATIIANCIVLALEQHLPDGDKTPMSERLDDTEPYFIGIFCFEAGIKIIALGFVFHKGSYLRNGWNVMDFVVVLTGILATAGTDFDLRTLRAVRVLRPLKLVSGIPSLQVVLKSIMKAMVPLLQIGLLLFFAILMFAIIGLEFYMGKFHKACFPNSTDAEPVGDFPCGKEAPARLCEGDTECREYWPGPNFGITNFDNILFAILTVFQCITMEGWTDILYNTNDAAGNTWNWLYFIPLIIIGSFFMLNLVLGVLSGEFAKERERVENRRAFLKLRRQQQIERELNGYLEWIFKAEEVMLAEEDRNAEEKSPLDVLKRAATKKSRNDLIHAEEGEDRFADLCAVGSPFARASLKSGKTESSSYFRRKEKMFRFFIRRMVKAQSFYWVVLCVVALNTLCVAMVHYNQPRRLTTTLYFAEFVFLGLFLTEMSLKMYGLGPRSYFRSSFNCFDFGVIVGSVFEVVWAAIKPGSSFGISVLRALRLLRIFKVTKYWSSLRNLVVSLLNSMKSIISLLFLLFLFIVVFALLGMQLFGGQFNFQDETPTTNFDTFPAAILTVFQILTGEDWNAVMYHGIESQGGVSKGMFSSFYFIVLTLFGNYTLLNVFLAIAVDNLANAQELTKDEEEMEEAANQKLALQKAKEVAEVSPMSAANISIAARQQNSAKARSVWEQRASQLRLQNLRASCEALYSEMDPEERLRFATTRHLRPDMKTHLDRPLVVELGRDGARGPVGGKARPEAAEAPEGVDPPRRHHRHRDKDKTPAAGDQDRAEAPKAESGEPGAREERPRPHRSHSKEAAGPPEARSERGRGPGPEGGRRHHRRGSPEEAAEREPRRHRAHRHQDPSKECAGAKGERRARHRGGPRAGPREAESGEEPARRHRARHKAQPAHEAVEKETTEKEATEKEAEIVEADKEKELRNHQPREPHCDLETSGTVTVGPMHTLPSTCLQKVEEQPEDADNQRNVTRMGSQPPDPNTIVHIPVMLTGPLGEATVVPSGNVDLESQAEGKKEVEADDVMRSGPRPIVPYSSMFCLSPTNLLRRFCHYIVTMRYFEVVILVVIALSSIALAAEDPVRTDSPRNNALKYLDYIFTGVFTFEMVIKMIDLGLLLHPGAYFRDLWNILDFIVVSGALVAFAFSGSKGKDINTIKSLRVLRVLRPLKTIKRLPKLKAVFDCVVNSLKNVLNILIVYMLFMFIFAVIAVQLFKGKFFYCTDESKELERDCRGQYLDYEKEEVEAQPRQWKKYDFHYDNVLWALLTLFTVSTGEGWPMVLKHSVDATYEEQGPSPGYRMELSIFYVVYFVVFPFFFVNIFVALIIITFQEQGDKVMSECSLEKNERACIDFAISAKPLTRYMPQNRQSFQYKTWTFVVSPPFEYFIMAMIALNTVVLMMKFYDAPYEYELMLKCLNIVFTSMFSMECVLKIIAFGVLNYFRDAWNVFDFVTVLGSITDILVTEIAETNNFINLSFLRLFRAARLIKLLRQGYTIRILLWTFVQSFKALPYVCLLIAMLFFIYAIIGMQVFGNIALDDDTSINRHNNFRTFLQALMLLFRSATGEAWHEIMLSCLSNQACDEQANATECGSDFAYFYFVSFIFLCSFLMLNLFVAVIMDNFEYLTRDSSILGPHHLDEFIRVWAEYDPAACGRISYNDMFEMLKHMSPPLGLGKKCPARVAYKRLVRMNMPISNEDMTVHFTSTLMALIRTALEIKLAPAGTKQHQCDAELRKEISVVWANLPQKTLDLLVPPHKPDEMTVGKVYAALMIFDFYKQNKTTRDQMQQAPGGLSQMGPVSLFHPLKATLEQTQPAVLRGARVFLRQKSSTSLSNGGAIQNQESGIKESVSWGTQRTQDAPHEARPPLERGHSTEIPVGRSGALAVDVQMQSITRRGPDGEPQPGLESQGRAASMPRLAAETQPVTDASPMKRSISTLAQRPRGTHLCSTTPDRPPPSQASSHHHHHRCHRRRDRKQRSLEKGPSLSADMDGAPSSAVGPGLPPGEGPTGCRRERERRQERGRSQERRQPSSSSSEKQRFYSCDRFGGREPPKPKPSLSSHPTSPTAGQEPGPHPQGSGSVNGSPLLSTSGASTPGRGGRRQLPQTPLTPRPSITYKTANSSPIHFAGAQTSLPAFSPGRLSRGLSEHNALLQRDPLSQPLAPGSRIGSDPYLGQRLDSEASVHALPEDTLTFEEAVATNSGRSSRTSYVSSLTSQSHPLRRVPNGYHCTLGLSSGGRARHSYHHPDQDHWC
Sequence of human Cav2.2 (P54289 25-946 partner limits assumed): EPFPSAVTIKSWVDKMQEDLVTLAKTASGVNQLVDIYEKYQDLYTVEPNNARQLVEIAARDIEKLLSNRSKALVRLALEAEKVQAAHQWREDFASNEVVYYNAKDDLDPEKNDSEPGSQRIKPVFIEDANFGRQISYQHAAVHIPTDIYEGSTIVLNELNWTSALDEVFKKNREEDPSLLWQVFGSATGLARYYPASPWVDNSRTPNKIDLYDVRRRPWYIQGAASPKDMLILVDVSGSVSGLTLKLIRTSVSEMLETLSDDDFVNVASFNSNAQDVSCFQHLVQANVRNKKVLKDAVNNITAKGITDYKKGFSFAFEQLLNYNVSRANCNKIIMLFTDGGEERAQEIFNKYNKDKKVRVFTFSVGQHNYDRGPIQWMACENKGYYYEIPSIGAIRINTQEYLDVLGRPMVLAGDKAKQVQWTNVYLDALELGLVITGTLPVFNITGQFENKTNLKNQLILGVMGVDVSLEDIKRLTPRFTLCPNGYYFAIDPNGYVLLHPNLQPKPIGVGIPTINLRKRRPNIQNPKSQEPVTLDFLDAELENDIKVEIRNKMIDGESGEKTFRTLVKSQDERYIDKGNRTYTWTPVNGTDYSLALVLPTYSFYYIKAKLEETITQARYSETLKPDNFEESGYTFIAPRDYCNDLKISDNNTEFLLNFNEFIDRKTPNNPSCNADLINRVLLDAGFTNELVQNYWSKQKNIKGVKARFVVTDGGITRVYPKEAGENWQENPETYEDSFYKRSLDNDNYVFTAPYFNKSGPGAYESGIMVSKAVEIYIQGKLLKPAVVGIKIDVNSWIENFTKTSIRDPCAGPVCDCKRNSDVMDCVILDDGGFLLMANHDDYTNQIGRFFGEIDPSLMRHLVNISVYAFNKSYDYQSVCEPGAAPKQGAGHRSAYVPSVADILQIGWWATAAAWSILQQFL
Sequence of human Cav2.2 (P54289 947-1103 partner limits assumed): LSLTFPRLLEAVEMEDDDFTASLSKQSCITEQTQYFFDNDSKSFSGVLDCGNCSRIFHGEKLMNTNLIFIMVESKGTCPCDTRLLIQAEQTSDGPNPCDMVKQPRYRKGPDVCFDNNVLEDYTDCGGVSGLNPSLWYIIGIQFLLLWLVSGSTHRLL
Sequence of human Cav2.2 (P54284 whole entry partner): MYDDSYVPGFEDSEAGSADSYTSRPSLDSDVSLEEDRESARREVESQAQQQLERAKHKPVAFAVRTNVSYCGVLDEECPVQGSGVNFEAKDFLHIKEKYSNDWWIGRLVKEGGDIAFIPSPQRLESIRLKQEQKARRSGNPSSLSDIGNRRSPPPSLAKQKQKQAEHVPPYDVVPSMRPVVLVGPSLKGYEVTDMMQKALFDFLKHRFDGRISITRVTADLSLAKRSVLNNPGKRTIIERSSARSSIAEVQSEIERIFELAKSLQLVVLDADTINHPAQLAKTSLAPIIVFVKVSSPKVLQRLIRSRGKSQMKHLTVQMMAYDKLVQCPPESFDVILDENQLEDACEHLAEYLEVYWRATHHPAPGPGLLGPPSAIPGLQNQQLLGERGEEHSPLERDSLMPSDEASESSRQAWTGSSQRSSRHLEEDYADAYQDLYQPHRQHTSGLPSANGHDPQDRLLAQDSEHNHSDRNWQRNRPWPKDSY

One assay deals with human Cav2.2 (Homo sapiens, UniProt Q00975). The assay is described as follows: Assessment of calcium channel activity using FLIPR (Ca2+ influx in IMR32 cells). In kind it is cell-based. As to conditions: 60 minute pre-incubation with compound, 2 μM nifedipine, depolarized with 80 mM KCl. Put shortly:
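IMR32 neuroblastoma cells seeded at 1-1.2×10^5 cells/well and grown 48 h at 37 °C before FLIPR Ca2+ influx read. Percent inhibition at each concentration vs no-inhibitor activity; IC50 by non-linear sigmoidal dose-response fit.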
Regarding `O=C(N[C@H]1CC[C@H]2CN(S(=O)(=O)CCc3ccccc3)C[C@H]21)C(C1CCCCC1)C1CCCCC1` [Example 206, 2,2-dicyclohexyl-N-{(3aS,4S,6aR)-2-[(2-phenylethyl)sulfonyl]octahydrocyclopenta[c]pyrrol-4-yl}acetamide], the IC50 is more than 100 µM.
On to `O=C(N[C@H]1CC[C@H]2CN(S(=O)(=O)CCc3cccc4ccccc34)C[C@H]21)C(C1CCCCC1)C1CCCCC1` [Example 207, 2,2-dicyclohexyl-N-((3aS,4S,6aR)-2-{[2-(1-naphthyl)ethyl]sulfonyl}octahydrocyclopenta[c]pyrrol-4-yl)acetamide], for which the IC50 is more than 100 µM.
Same read-out and setting: the value for `O=C(N[C@H]1CC[C@H]2CN(S(=O)(=O)Cc3cccc(C(F)(F)F)c3)C[C@H]21)C(C1CCCCC1)C1CCCCC1` [Example 208, 2,2-dicyclohexyl-N-((3aS,4S,6aR)-2-{[3-(trifluoromethyl)benzyl]sulfonyl}octahydrocyclopenta[c]pyrrol-4-yl)acetamide] was more than 100 µM; that for `O=C(N[C@H]1CC[C@H]2CN(S(=O)(=O)CCc3ccc(F)cc3)C[C@H]21)C(C1CCCCC1)C1CCCCC1` [Example 209, 2,2-dicyclohexyl-N-((3aS,4S,6aR)-2-{[2-(4-fluorophenyl)ethyl]sulfonyl}octahydrocyclopenta[c]pyrrol-4-yl)acetamide] was more than 100 µM; that for `CC(C)C[C@H](NC(=O)OC(C)(C)C)C(=O)N[C@H]1CC[C@@H]2CN(Cc3ccccc3)C[C@@H]21` [Example 221, tert-butyl(S)-1-((3aR,4S,6aS)-2-benzyloctahydrocyclopenta[c]pyrrol-4-ylamino)-4-methyl-1-oxopentan-2-ylcarbamate] was 3.93 µM.
For `CC(C)C[C@@H](C(=O)N[C@H]1CC[C@@H]2CN(Cc3ccccc3)C[C@@H]21)N(C)C(=O)OC(C)(C)C` [Example 222, tert-butyl(S)-1-((3aR,4S,6aS)-2-benzyloctahydrocyclopenta[c]pyrrol-4-ylamino)-4-methyl-1-oxopentan-2-yl(methyl)carbamate], the IC50 worked out at 2.05 µM.
Regarding `CCN(C(=O)OC(C)(C)C)[C@@H](CC(C)C)C(=O)N[C@H]1CC[C@@H]2CN(Cc3ccccc3)C[C@@H]21` [Example 223, tert-butyl(S)-1-((3aR,4S,6aS)-2-benzyloctahydrocyclopenta[c]pyrrol-4-ylamino)-4-methyl-1-oxopentan-2-yl(ethyl)carbamate], the half-maximal inhibitory concentration (IC50) amounted to 2.06 µM.
Take `CC[C@H](C)[C@@H](C(=O)N[C@H]1CC[C@@H]2CN(Cc3ccccc3)C[C@@H]21)N(C)C(=O)OC(C)(C)C` [Example 224, tert-butyl(2S,3S)-1-((3aR,4S,6aS)-2-benzyloctahydrocyclopenta[c]pyrrol-4-ylamino)-3-methyl-1-oxopentan-2-yl(methyl)carbamate]: the IC50 came to 4.64 µM.

Staying with this assay, now noted: IMR-32, @ 10 μM, 3 minute pre-incubation (*), read-out: percent inhibition.
With `CC[C@H](C(=O)N[C@@H]1CC[C@@H]2CN([C@@H](C)c3ccccc3)C[C@@H]21)c1ccccc1` [Example 210, (2S)-2-phenyl-N-{(3aR,4R,6aS)-2-[(1S)-1-phenylethyl]octahydrocyclopenta[c]pyrrol-4-yl}butanamide], the inhibition at 10 µM stood at 76%.
Same read-out and setting: to `CC[C@H](C(=O)N[C@@H]1CC[C@H]2CN([C@@H](C)c3ccccc3)C[C@H]21)c1ccccc1` [Example 213, (2S)-2-phenyl-N-{(3aS,4R,6aR)-2-[(1S)-1-phenylethyl]octahydrocyclopenta[c]pyrrol-4-yl}butanamide] belongs 60%.
For `CC(C)C(C(=O)N[C@H]1CC[C@@H]2CN(C(=O)c3ccccc3)C[C@@H]21)c1ccccc1` (stereo partly drawn) [Example 218, N-[(3aR,4S,6aS)-2-benzoyloctahydrocyclopenta[c]pyrrol-4-yl]-3-methyl-2-phenylbutanamide], the inhibition at 10 µM was 56%.
Turning to `CC(C)N(C(=O)N[C@H]1CC[C@@H]2CN(Cc3ccccc3)C[C@@H]21)c1ccccc1` [Example 219, N′-[(3aR,4S,6aS)-2-benzyloctahydrocyclopenta[c]pyrrol-4-yl]-N-isopropyl-N-phenylurea], the inhibition at 10 µM turned out to be 63%.

These data come from patent US8129417B2, “Substituted octahydrocyclopenta[C]pyrrol-4-amines as calcium channel blockers” (Abbott Laboratories, priority 2008, dated 2012).
